Measurements taken from patent US20250084061A1, “SULFONYL FUNCTIONAL COMPOUND, METHODS AND USES THEREOF” (Hubei Biopesticide Engineering Research Centre, priority 2023, published 2025).
Read-outs that look alike come from different tables or passages of the source.

What was measured:
[1] = system: Colletotrichum gloeobosporioids; assay: Bactericidal (fungicidal) activity by microdilution; assay type: cell-based
Botrytis cinerea = assay: as above; assay type: cell-based
Septoria nodorum Berk. = assay: as above; assay type: cell-based
Aphiscraccivora = assay: Insecticidal activity, dipping method; assay type: in vivo
Description: (§1) The insecticidal activity of sulfonyl functional compounds in the above embodiments were tested for agricultural biological functions, and the targets of insecticidal activity were Heliothis armigera, Plutella xylostella and Aphiscraccivora.
(§2) The insecticidal activity of sulfonyl functional compounds against Aphiscraccivora was tested by the method of dipping. Mother liquors were prepared by the sulfonyl functional compounds provided in the above embodiments dissolved in ethanol, respectively. 500 mg/L, 250 mg/L or 125 mg/L test solution could be prepared by diluting the different mother liquors with a liquor that contained 0.1 mL/L of emulgator (Tween-80). Every test solution was tested twice (Rep1 and Rep2). A blank control was set up, and the activity results were compared with the blank control. The mortality rate of 0˜30%, 30˜50%, 50-70%, 70˜90%, or 90˜100% could be orderly set as 0, 3, 5, 7, or 9.

Thanatephorus cucumeris = assay: Bactericidal (fungicidal) activity by microdilution; assay type: cell-based
Fusarium culmorum = assay: as above; assay type: cell-based
Heliothis armigera = assay: Insecticidal activity, artificial feed surface coating method; assay type: in vivo; details: Helicoverpa armigera, read-out: Insecticidal activity (mortality rate grade) Heliothis armigera
Description: as §1
(§3) Using Heliothis armigera and Plutella xylostella as target, the insecticidal activities of sulfonyl functional compounds were tested by conventional artificial feed surface coating method. 300 microliters of artificial feed and 20 microliters of test solution were added to each well of the 24-well cell culture plate. The test solution was used in different concentrations and repeated twice (Rep1 and Rep2). The concentrations of the test solution were 500 mg/L, 250 mg/L and 125 mg/L, respectively.
as §2

Plutella xylostella = assay: as above; assay type: in vivo; details: Plutella xylostella, read-out: Insecticidal activity (mortality rate grade) Plutella xylostella
Description: as §1, §3, §2

[2] = system: Corynespora leaf spot of tomato; assay: Bactericidal (fungicidal) activity by microdilution; assay type: cell-based
Magnaporthe oryzae = assay type: cell-based
Alternaria kikuchiana = assay: Bactericidal (fungicidal) activity by microdilution; assay type: cell-based
[3] = system: Verticillium dahliae.kieb.; assay: as above; assay type: cell-based
Leptosphaeria biglobosa = assay: as above; assay type: cell-based
Rhizoctonia solani = assay: as above; assay type: cell-based
Pythium aphanidermatum = assay: as above; assay type: cell-based
[4] = system: Fusarium oxysporum f. sp. Niveum; assay: as above; assay type: cell-based

SMILES: COC(=O)Nc1nc2ccccc2n1C/C=C/S(=O)(=O)O [III-2]
- Fungicidal activity (antibacterial rate grade) Colletotrichum gloeobosporioids ([1]; 12.5 mg/L): 9 (The antibacterial rate of 90˜100% could be set as 9 if the target has totally no growth)
- Fungicidal activity (antibacterial rate grade) Colletotrichum gloeobosporioids ([1]; 25 mg/L): 9 (The antibacterial rate of 90˜100% could be set as 9 if the target has totally no growth)
- Fungicidal activity (antibacterial rate grade) Colletotrichum gloeobosporioids ([1]; 50 mg/L): 9 (The antibacterial rate of 90˜100% could be set as 9 if the target has totally no growth)
- Fungicidal activity (antibacterial rate grade) Colletotrichum gloeobosporioids ([1]; 100 mg/L): 9 (The antibacterial rate of 90˜100% could be set as 9 if the target has totally no growth)
- Fungicidal activity (antibacterial rate grade) Botrytis cinerea (Botrytis cinerea; 12.5 mg/L): 3 (The antibacterial rate of 0˜30% could be set as 3 if the growth of the target is normal and consistent with that of the blank control)
- Fungicidal activity (antibacterial rate grade) Botrytis cinerea (Botrytis cinerea; 25 mg/L): 3 (The antibacterial rate of 0˜30% could be set as 3 if the growth of the target is normal and consistent with that of the blank control)
- Fungicidal activity (antibacterial rate grade) Botrytis cinerea (Botrytis cinerea; 50 mg/L): 3 (The antibacterial rate of 0˜30% could be set as 3 if the growth of the target is normal and consistent with that of the blank control)
- Fungicidal activity (antibacterial rate grade) Botrytis cinerea (Botrytis cinerea; 100 mg/L): 3 (The antibacterial rate of 0˜30% could be set as 3 if the growth of the target is normal and consistent with that of the blank control)
- Fungicidal activity (antibacterial rate grade) Septoria nodorum Berk. (Septoria nodorum Berk.; 12.5 mg/L): 9 (The antibacterial rate of 90˜100% could be set as 9 if the target has totally no growth)
- Fungicidal activity (antibacterial rate grade) Septoria nodorum Berk. (Septoria nodorum Berk.; 25 mg/L): 9 (The antibacterial rate of 90˜100% could be set as 9 if the target has totally no growth)
- Fungicidal activity (antibacterial rate grade) Septoria nodorum Berk. (Septoria nodorum Berk.; 50 mg/L): 9 (The antibacterial rate of 90˜100% could be set as 9 if the target has totally no growth)
- Fungicidal activity (antibacterial rate grade) Septoria nodorum Berk. (Septoria nodorum Berk.; 100 mg/L): 9 (The antibacterial rate of 90˜100% could be set as 9 if the target has totally no growth)
- Insecticidal activity (mortality rate grade) Aphiscraccivora (Aphiscraccivora; 125 mg/L test solution): 0 (mortality rate of 0˜30%)
- Insecticidal activity (mortality rate grade) Aphiscraccivora (Aphiscraccivora; 250 mg/L test solution): 0 (mortality rate of 0˜30%)
- Insecticidal activity (mortality rate grade) Aphiscraccivora (Aphiscraccivora; 500 mg/L test solution): 0 (mortality rate of 0˜30%)
- Fungicidal activity (antibacterial rate grade) Thanatephorus cucumeris (Thanatephorus cucumeris; 12.5 mg/L): 9 (The antibacterial rate of 90˜100% could be set as 9 if the target has totally no growth)
- Fungicidal activity (antibacterial rate grade) Thanatephorus cucumeris (Thanatephorus cucumeris; 25 mg/L): 9 (The antibacterial rate of 90˜100% could be set as 9 if the target has totally no growth)
- Fungicidal activity (antibacterial rate grade) Thanatephorus cucumeris (Thanatephorus cucumeris; 50 mg/L): 9 (The antibacterial rate of 90˜100% could be set as 9 if the target has totally no growth)
- Fungicidal activity (antibacterial rate grade) Thanatephorus cucumeris (Thanatephorus cucumeris; 100 mg/L): 9 (The antibacterial rate of 90˜100% could be set as 9 if the target has totally no growth)
- Fungicidal activity (antibacterial rate grade) Fusarium culmorum (Fusarium culmorum; 12.5 mg/L): 7 (The antibacterial rate of 70˜90% could be set as 7 if the target has small amounts of growth)
- Fungicidal activity (antibacterial rate grade) Fusarium culmorum (Fusarium culmorum; 25 mg/L): 9 (The antibacterial rate of 90˜100% could be set as 9 if the target has totally no growth)
- Fungicidal activity (antibacterial rate grade) Fusarium culmorum (Fusarium culmorum; 50 mg/L): 9 (The antibacterial rate of 90˜100% could be set as 9 if the target has totally no growth)
- Fungicidal activity (antibacterial rate grade) Fusarium culmorum (Fusarium culmorum; 100 mg/L): 9 (The antibacterial rate of 90˜100% could be set as 9 if the target has totally no growth)
- mortality at 125 µg/mL (Heliothis armigera; 125 mg/L test solution): 0 to 30%
- mortality at 250 µg/mL (Heliothis armigera; 250 mg/L test solution): 0 to 30%
- mortality at 500 µg/mL (Heliothis armigera; 500 mg/L test solution): 0 to 30%
- mortality at 125 µg/mL (Plutella xylostella; 125 mg/L test solution): 0 to 30%
- mortality at 250 µg/mL (Plutella xylostella; 250 mg/L test solution): 0 to 30%
- mortality at 500 µg/mL (Plutella xylostella; 500 mg/L test solution): 0 to 30%
- Fungicidal activity (antibacterial rate grade) Corynespora leaf spot of tomato ([2]; 12.5 mg/L): 3 (The antibacterial rate of 0˜30% could be set as 3 if the growth of the target is normal and consistent with that of the blank control)
- Fungicidal activity (antibacterial rate grade) Corynespora leaf spot of tomato ([2]; 25 mg/L): 3 (The antibacterial rate of 0˜30% could be set as 3 if the growth of the target is normal and consistent with that of the blank control)
- Fungicidal activity (antibacterial rate grade) Corynespora leaf spot of tomato ([2]; 50 mg/L): 7 (The antibacterial rate of 70˜90% could be set as 7 if the target has small amounts of growth)
- Fungicidal activity (antibacterial rate grade) Corynespora leaf spot of tomato ([2]; 100 mg/L): 7 (The antibacterial rate of 70˜90% could be set as 7 if the target has small amounts of growth)
- Fungicidal activity (antibacterial rate grade) Magnaporthe oryzae (Magnaporthe oryzae; 12.5 mg/L): 9 (The antibacterial rate of 90˜100% could be set as 9 if the target has totally no growth)
- Fungicidal activity (antibacterial rate grade) Magnaporthe oryzae (Magnaporthe oryzae; 25 mg/L): 9 (The antibacterial rate of 90˜100% could be set as 9 if the target has totally no growth)
- Fungicidal activity (antibacterial rate grade) Magnaporthe oryzae (Magnaporthe oryzae; 50 mg/L): 9 (The antibacterial rate of 90˜100% could be set as 9 if the target has totally no growth)
- Fungicidal activity (antibacterial rate grade) Magnaporthe oryzae (Magnaporthe oryzae; 100 mg/L): 9 (The antibacterial rate of 90˜100% could be set as 9 if the target has totally no growth)
- Fungicidal activity (antibacterial rate grade) Alternaria kikuchiana (Alternaria kikuchiana; 12.5 mg/L): 3 (The antibacterial rate of 0˜30% could be set as 3 if the growth of the target is normal and consistent with that of the blank control)
- Fungicidal activity (antibacterial rate grade) Alternaria kikuchiana (Alternaria kikuchiana; 25 mg/L): 3 (The antibacterial rate of 0˜30% could be set as 3 if the growth of the target is normal and consistent with that of the blank control)
- Fungicidal activity (antibacterial rate grade) Alternaria kikuchiana (Alternaria kikuchiana; 50 mg/L): 3 (The antibacterial rate of 0˜30% could be set as 3 if the growth of the target is normal and consistent with that of the blank control)
- Fungicidal activity (antibacterial rate grade) Alternaria kikuchiana (Alternaria kikuchiana; 100 mg/L): 3 (The antibacterial rate of 0˜30% could be set as 3 if the growth of the target is normal and consistent with that of the blank control)
- Fungicidal activity (antibacterial rate grade) Verticillium dahliae. kieb. ([3]; 12.5 mg/L): 9 (The antibacterial rate of 90˜100% could be set as 9 if the target has totally no growth)
- Fungicidal activity (antibacterial rate grade) Verticillium dahliae. kieb. ([3]; 25 mg/L): 9 (The antibacterial rate of 90˜100% could be set as 9 if the target has totally no growth)
- Fungicidal activity (antibacterial rate grade) Verticillium dahliae. kieb. ([3]; 50 mg/L): 9 (The antibacterial rate of 90˜100% could be set as 9 if the target has totally no growth)
- Fungicidal activity (antibacterial rate grade) Verticillium dahliae. kieb. ([3]; 100 mg/L): 9 (The antibacterial rate of 90˜100% could be set as 9 if the target has totally no growth)
- Fungicidal activity (antibacterial rate grade) Leptosphaeria biglobosa (Leptosphaeria biglobosa; 12.5 mg/L): 9 (The antibacterial rate of 90˜100% could be set as 9 if the target has totally no growth)
- Fungicidal activity (antibacterial rate grade) Leptosphaeria biglobosa (Leptosphaeria biglobosa; 25 mg/L): 9 (The antibacterial rate of 90˜100% could be set as 9 if the target has totally no growth)
- Fungicidal activity (antibacterial rate grade) Leptosphaeria biglobosa (Leptosphaeria biglobosa; 50 mg/L): 9 (The antibacterial rate of 90˜100% could be set as 9 if the target has totally no growth)
- Fungicidal activity (antibacterial rate grade) Leptosphaeria biglobosa (Leptosphaeria biglobosa; 100 mg/L): 9 (The antibacterial rate of 90˜100% could be set as 9 if the target has totally no growth)
- Fungicidal activity (antibacterial rate grade) Rhizoctonia solani (Rhizoctonia solani; 12.5 mg/L): 3 (The antibacterial rate of 0˜30% could be set as 3 if the growth of the target is normal and consistent with that of the blank control)
- Fungicidal activity (antibacterial rate grade) Rhizoctonia solani (Rhizoctonia solani; 25 mg/L): 3 (The antibacterial rate of 0˜30% could be set as 3 if the growth of the target is normal and consistent with that of the blank control)
- Fungicidal activity (antibacterial rate grade) Rhizoctonia solani (Rhizoctonia solani; 50 mg/L): 3 (The antibacterial rate of 0˜30% could be set as 3 if the growth of the target is normal and consistent with that of the blank control)
- Fungicidal activity (antibacterial rate grade) Rhizoctonia solani (Rhizoctonia solani; 100 mg/L): 3 (The antibacterial rate of 0˜30% could be set as 3 if the growth of the target is normal and consistent with that of the blank control)
- Fungicidal activity (antibacterial rate grade) Pythium aphanidematum (Pythium aphanidermatum; 12.5 mg/L): 3 (The antibacterial rate of 0˜30% could be set as 3 if the growth of the target is normal and consistent with that of the blank control)
- Fungicidal activity (antibacterial rate grade) Pythium aphanidematum (Pythium aphanidermatum; 25 mg/L): 3 (The antibacterial rate of 0˜30% could be set as 3 if the growth of the target is normal and consistent with that of the blank control)
- Fungicidal activity (antibacterial rate grade) Pythium aphanidematum (Pythium aphanidermatum; 50 mg/L): 3 (The antibacterial rate of 0˜30% could be set as 3 if the growth of the target is normal and consistent with that of the blank control)
- Fungicidal activity (antibacterial rate grade) Pythium aphanidematum (Pythium aphanidermatum; 100 mg/L): 3 (The antibacterial rate of 0˜30% could be set as 3 if the growth of the target is normal and consistent with that of the blank control)
- Fungicidal activity (antibacterial rate grade) Fusarium oxysporum f. sp. Niveum ([4]; 12.5 mg/L): 9 (The antibacterial rate of 90˜100% could be set as 9 if the target has totally no growth)
- Fungicidal activity (antibacterial rate grade) Fusarium oxysporum f. sp. Niveum ([4]; 25 mg/L): 9 (The antibacterial rate of 90˜100% could be set as 9 if the target has totally no growth)
- Fungicidal activity (antibacterial rate grade) Fusarium oxysporum f. sp. Niveum ([4]; 50 mg/L): 9 (The antibacterial rate of 90˜100% could be set as 9 if the target has totally no growth)
- Fungicidal activity (antibacterial rate grade) Fusarium oxysporum f. sp. Niveum ([4]; 100 mg/L): 9 (The antibacterial rate of 90˜100% could be set as 9 if the target has totally no growth)
